PubChem BioAssay (NCI)
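Tested at 5 concentrations; 48 h exposure; 96-well plates; endpoints linearly interpolated, else capped at highest concentration. TGI denotes the concentration required for complete inhibition of growth.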

Key:
Assay in all cases: NCI tumour cell line growth inhibition, 48 h
HOP-92 NSCLC = tested on: HOP-92 NSCLC
SF-268 CNS = tested on: SF-268 CNS
NCI-H23 lung = tested on: NCI-H23 lung
DMS 273 small cell lung = tested on: DMS 273 small cell lung
MOLT-4 leukemia = tested on: MOLT-4 leukemia
SK-MEL-2 melanoma = tested on: SK-MEL-2 melanoma
RPMI-8226 leukemia = tested on: RPMI-8226 leukemia
M19-MEL melanoma = tested on: M19-MEL melanoma
COLO 205 colon = tested on: COLO 205 colon
NCI-H460 lung = tested on: NCI-H460 lung
SW-620 colon = tested on: SW-620 colon
SNB-78 CNS = tested on: SNB-78 CNS
M14 melanoma = tested on: M14 melanoma
HOP-62 NSCLC = tested on: HOP-62 NSCLC
LOX IMVI melanoma = tested on: LOX IMVI melanoma
UACC-257 melanoma = tested on: UACC-257 melanoma
HCT-116 colon = tested on: HCT-116 colon
A549 NSCLC = tested on: A549 NSCLC
U251 CNS = tested on: U251 CNS
RXF 393 renal = tested on: RXF 393 renal
SNB-75 CNS = tested on: SNB-75 CNS
DMS 114 small cell lung = tested on: DMS 114 small cell lung
OVCAR-3 ovarian = tested on: OVCAR-3 ovarian
HCT-15 colon = tested on: HCT-15 colon
CCRF-CEM leukemia = tested on: CCRF-CEM leukemia
OVCAR-4 ovarian = tested on: OVCAR-4 ovarian
KM20L2 colon = tested on: KM20L2 colon
SR leukemia = tested on: SR leukemia
OVCAR-5 ovarian = tested on: OVCAR-5 ovarian
ACHN renal = tested on: ACHN renal
LXFL 529 NSCLC = tested on: LXFL 529 NSCLC
EKVX NSCLC = tested on: EKVX NSCLC
HCC-2998 colon = tested on: HCC-2998 colon
HOP-18 NSCLC = tested on: HOP-18 NSCLC
SF-539 CNS = tested on: SF-539 CNS
SN12C renal = tested on: SN12C renal
K-562 leukemia = tested on: K-562 leukemia
IGROV1 ovarian = tested on: IGROV1 ovarian
TK-10 renal = tested on: TK-10 renal
HL-60(TB) leukemia = tested on: HL-60(TB) leukemia
UACC-62 melanoma = tested on: UACC-62 melanoma
SNB-19 CNS = tested on: SNB-19 CNS
HT29 colon = tested on: HT29 colon
KM12 colon = tested on: KM12 colon
OVCAR-8 ovarian = tested on: OVCAR-8 ovarian
SK-MEL-5 melanoma = tested on: SK-MEL-5 melanoma
UO-31 renal = tested on: UO-31 renal
SK-MEL-28 melanoma = tested on: SK-MEL-28 melanoma
SF-295 CNS = tested on: SF-295 CNS
A498 renal = tested on: A498 renal
MALME-3M melanoma = tested on: MALME-3M melanoma
786-0 renal = tested on: 786-0 renal
NCI-H522 lung = tested on: NCI-H522 lung
DLD-1 colon = tested on: DLD-1 colon
CAKI-1 renal = tested on: CAKI-1 renal
NCI-H226 lung = tested on: NCI-H226 lung
XF 498 CNS = tested on: XF 498 CNS

Question: What does the source list for O=C(NNC(=S)Nc1ccccc1)c1nsc2ccccc12?
Answer: TGI (HOP-92 NSCLC): 90.5 µM; TGI (SF-268 CNS): > 100 µM; TGI (NCI-H23 lung): > 100 µM; TGI (DMS 273 small cell lung): 69.8 µM; TGI (MOLT-4 leukemia): 98.5 µM; TGI (SK-MEL-2 melanoma): > 100 µM; TGI (RPMI-8226 leukemia): > 100 µM; TGI (M19-MEL melanoma): > 100 µM; TGI (COLO 205 colon): > 100 µM; TGI (NCI-H460 lung): > 100 µM; TGI (SW-620 colon): > 100 µM; TGI (SNB-78 CNS): > 100 µM; TGI (M14 melanoma): 32.9 µM; TGI (HOP-62 NSCLC): > 100 µM; TGI (LOX IMVI melanoma): > 100 µM; TGI (UACC-257 melanoma): > 100 µM; TGI (HCT-116 colon): > 100 µM; TGI (A549 NSCLC): > 100 µM; TGI (U251 CNS): > 100 µM; TGI (RXF 393 renal): > 100 µM; TGI (SNB-75 CNS): 65.6 µM; TGI (DMS 114 small cell lung): 70 µM; TGI (OVCAR-3 ovarian): 35.1 µM; TGI (HCT-15 colon): > 100 µM; TGI (CCRF-CEM leukemia): 49 µM; TGI (OVCAR-4 ovarian): > 100 µM; TGI (KM20L2 colon): > 100 µM; TGI (SR leukemia): 91.1 µM; TGI (OVCAR-5 ovarian): > 100 µM; TGI (ACHN renal): > 100 µM; TGI (LXFL 529 NSCLC): > 100 µM; TGI (EKVX NSCLC): > 100 µM; TGI (HCC-2998 colon): > 100 µM; TGI (HOP-18 NSCLC): 41.4 µM; TGI (SF-539 CNS): 97.8 µM; TGI (SN12C renal): > 100 µM; TGI (K-562 leukemia): > 100 µM; TGI (IGROV1 ovarian): > 100 µM; TGI (TK-10 renal): > 100 µM; TGI (HL-60(TB) leukemia): 53.8 µM; TGI (UACC-62 melanoma): 85.7 µM; TGI (SNB-19 CNS): > 100 µM; TGI (HT29 colon): > 100 µM; TGI (KM12 colon): > 100 µM; TGI (OVCAR-8 ovarian): > 100 µM; TGI (SK-MEL-5 melanoma): > 100 µM; TGI (UO-31 renal): 75.4 µM; TGI (SK-MEL-28 melanoma): > 100 µM

Question: With CCO/C=C1\N=C(c2ccc(Cl)c(Cl)c2)OC1=O as the molecule, how does the TGI (SF-295 CNS) read?
Answer: Its TGI is > 100 µM.

Question: And the TGI (A498 renal)?
Answer: The TGI was > 100 µM.

Question: And the TGI (MALME-3M melanoma)?
Answer: Its TGI is > 100 µM.

Question: What about the TGI (HOP-92 NSCLC) of the same molecule?
Answer: Its TGI is > 100 µM.

Question: And the TGI (SF-268 CNS)?
Answer: Its TGI is > 100 µM.

Question: And the TGI (NCI-H23 lung)?
Answer: Its TGI is > 100 µM.

Question: What about the TGI (DMS 273 small cell lung) of the same molecule?
Answer: Its TGI is > 100 µM.

Question: And the TGI (MOLT-4 leukemia)?
Answer: Its TGI is > 100 µM.

Question: And the TGI (SK-MEL-2 melanoma)?
Answer: Its TGI is > 100 µM.

Question: What about the TGI (786-0 renal) of the same molecule?
Answer: Its TGI is > 100 µM.

Question: What about the TGI (RPMI-8226 leukemia) of the same molecule?
Answer: Its TGI is > 100 µM.

Question: And the TGI (M19-MEL melanoma)?
Answer: The TGI was > 100 µM.

Question: What about the TGI (COLO 205 colon) of the same molecule?
Answer: The TGI was > 100 µM.

Question: And the TGI (NCI-H460 lung)?
Answer: The TGI was > 100 µM.

Question: And the TGI (SW-620 colon)?
Answer: The TGI was > 100 µM.

Question: What about the TGI (NCI-H522 lung) of the same molecule?
Answer: Its TGI is > 100 µM.

Question: And the TGI (SNB-78 CNS)?
Answer: Its TGI is > 100 µM.

Question: What about the TGI (M14 melanoma) of the same molecule?
Answer: Its TGI is > 100 µM.

Question: What about the TGI (HOP-62 NSCLC) of the same molecule?
Answer: The TGI was > 100 µM.

Question: What about the TGI (LOX IMVI melanoma) of the same molecule?
Answer: Its TGI is > 100 µM.

Question: What about the TGI (UACC-257 melanoma) of the same molecule?
Answer: The TGI was > 100 µM.

Question: And the TGI (A549 NSCLC)?
Answer: Its TGI is > 100 µM.

Question: And the TGI (RXF 393 renal)?
Answer: The TGI was > 100 µM.

Question: And the TGI (SNB-75 CNS)?
Answer: Its TGI is > 100 µM.

Question: And the TGI (DMS 114 small cell lung)?
Answer: Its TGI is > 100 µM.

Question: What about the TGI (OVCAR-3 ovarian) of the same molecule?
Answer: Its TGI is > 100 µM.

Question: What about the TGI (HCT-15 colon) of the same molecule?
Answer: Its TGI is > 100 µM.

Question: And the TGI (CCRF-CEM leukemia)?
Answer: Its TGI is > 100 µM.

Question: And the TGI (OVCAR-4 ovarian)?
Answer: Its TGI is > 100 µM.

Question: What about the TGI (KM20L2 colon) of the same molecule?
Answer: Its TGI is > 100 µM.

Question: And the TGI (DLD-1 colon)?
Answer: Its TGI is > 100 µM.

Question: What about the TGI (OVCAR-5 ovarian) of the same molecule?
Answer: The TGI was > 100 µM.

Question: And the TGI (ACHN renal)?
Answer: The TGI was > 100 µM.

Question: What about the TGI (LXFL 529 NSCLC) of the same molecule?
Answer: Its TGI is > 100 µM.

Question: What about the TGI (CAKI-1 renal) of the same molecule?
Answer: Its TGI is > 100 µM.

Question: And the TGI (EKVX NSCLC)?
Answer: Its TGI is > 100 µM.

Question: And the TGI (HCC-2998 colon)?
Answer: The TGI was > 100 µM.

Question: What about the TGI (SF-539 CNS) of the same molecule?
Answer: Its TGI is > 100 µM.

Question: And the TGI (SN12C renal)?
Answer: The TGI was > 100 µM.

Question: What about the TGI (NCI-H226 lung) of the same molecule?
Answer: Its TGI is > 100 µM.

Question: What about the TGI (K-562 leukemia) of the same molecule?
Answer: Its TGI is > 100 µM.

Question: What about the TGI (IGROV1 ovarian) of the same molecule?
Answer: Its TGI is > 100 µM.

Question: What about the TGI (TK-10 renal) of the same molecule?
Answer: The TGI was > 100 µM.

Question: What about the TGI (HL-60(TB) leukemia) of the same molecule?
Answer: Its TGI is > 100 µM.

Question: What about the TGI (UACC-62 melanoma) of the same molecule?
Answer: The TGI was > 100 µM.

Question: And the TGI (SNB-19 CNS)?
Answer: The TGI was > 100 µM.

Question: And the TGI (HT29 colon)?
Answer: Its TGI is > 100 µM.

Question: And the TGI (KM12 colon)?
Answer: Its TGI is > 100 µM.

Question: And the TGI (OVCAR-8 ovarian)?
Answer: Its TGI is > 100 µM.

Question: And the TGI (SK-MEL-5 melanoma)?
Answer: Its TGI is > 100 µM.

Question: And the TGI (UO-31 renal)?
Answer: The TGI was > 100 µM.

Question: What about the TGI (XF 498 CNS) of the same molecule?
Answer: Its TGI is > 100 µM.

Question: And the TGI (SK-MEL-28 melanoma)?
Answer: Its TGI is > 100 µM.
